Data as given in the NIST ThermoML archive (doi:10.1021/acs.jced.7b01064).

Legend:
[1] = molar heat capacity at constant pressure; xn = mol fraction of the nth substance listed; details: 74.66 kPa, Liquid, DSC, x1 = 0.5
[2] = xn = mol fraction of the nth substance listed; details: 100 kPa, Liquid, x1 = 0.5; for viscosity: Concentric cylinders viscometry; for mass density: Vibrating tube method
[3] = Liquid, Closed cell (Static) method

CCCCOC(=O)CC(O)(CC(=O)O)C(=O)OCCCC (configuration not stated) [2-hydroxy-1,2,3-propanetricarboxylic acid 1,2-dibutyl ester] + CCCCOC(=O)CC(O)(CC(=O)OCCCC)C(=O)O
Details	mass density [kg/m3]	molar heat capacity at constant pressure [J/K/mol]	viscosity [mPa·s]
[1], 321.5 K	–	712.66	–
[1], 324.8 K	–	718.9	–
[1], 328.2 K	–	724.78	–
[1], 331.5 K	–	730.1	–
[1], 334.8 K	–	734.82	–
[1], 338.2 K	–	739.17	–
[1], 341.5 K	–	743.58	–
[1], 344.8 K	–	747.72	–
[2], 298.15 K	1129.7	–	3220
[2], 303.15 K	1124.2	–	2120
[2], 313.15 K	1113.4	–	1130

CCCCO [butan-1-ol]
[3]
Details	vapor or sublimation pressure [kPa]
293.15 K	0.56
298.15 K	0.84
303.15 K	1.23
308.15 K	1.76
313.15 K	2.44
318.15 K	3.33
323.15 K	4.35
328.15 K	5.33
